Measurements: patent US20190328857A1, “CALR AND JAK2 VACCINE COMPOSITIONS” (IO Biotech ApS, priority 2016, published 2019)

Tests used:
Assay type in all cases: cell-based, human
[1] = test system: CALRLong1-specific T-cells; assay: Intracellular cytokine staining of CALRLong1-specific T-cell culture stimulated with peptide; settings: after three stimulations with autologous dendritic cells
Protocol: Fresh PBMCs were first enriched for CD14+ cells using MACS CD14 MicroBeads (Miltenyi Biotech GmbH, Bergisch Gladbach, Germany). This was considered day 0. The resulting monocyte-depleted cell culture was termed peripheral blood lymphocytes (PBL). The enriched cells were cultured using CellGro (CellGenix GmbH, Freiburg, Germany), and stimulated with GM-CSF (1000 U/ml) and IL-4 (250 U/ml) (both PeproTech, Rocky Hill, N.J., USA). The next day, to generate fast dendritic cells (fastDC), we treated half of the enriched cells with a maturation cocktail comprising IFN-γ (1000 U/ml) (PeproTech, Rocky Hill, N.J., USA), PolyI:C (20 μg/ml) (Sigma-Aldrich, St. Louis, Mo., USA) and CALRLong1 peptide. PBL were cultured overnight in X-VIVO medium (Lonza Group Ltd., Basel, Switzerland) and then stimulated with half of the fastDC. The other half of the fastDC were frozen for later use.
The other half of the enriched cells were cultured until day 7, at which time these cells were treated with the same maturation cocktail as above, to generate mature dendritic cells (mDC). The next day, these mDC were used to stimulate PBLs. On day 9, IL-2 (120 U/mL) (Novartis, Basel, Switzerland) and IL-7 (40 U/ml) (PeproTech, Rocky Hill, N.J., USA) was added. On day 14, we thawed the fastDC that had been frozen on day 2, and used these cells to stimulate the PBL. On day 16 and day 24 we added, IL-2 and IL-7 in the concentrations mentioned above.
At day 38 of the T-cell culture, we stimulated the T-cells with CALRLong1 peptide for 4 h and next isolated IFN-γ secreting cells using the MACS IFN-γ secretion assay. The isolated cells were expanded using a rapid expansion protocol. The vast majority of cells that reacted to CALRLong1 peptide stimulation were CD4^+ T-cells; thus, we isolated CD4^+ T cells from the REP culture using the EasySep Human CD4 isolation Kit (StemCell Technologies, Inc., Vancouver, BC, Canada). The enriched CD4^+ T-cells were then cloned by limiting dilution, and growing T-cell clones were rapidly expanded using feeder cells and high dose IL-2 (6000 u/ml). T-cell receptor clonotyping of the cloned cells was performed by denaturing gradient gel electrophoresis as previously described.
Frozen T-cells were thawed one day prior to assaying, and in experiments examining CD107a expression, a CD107a-PE antibody was added to cells directly after addition of peptide or target cells. After one hour of stimulation, protein-transport inhibitor Brefeldin A (BD Biosciences, San Jose, Calif., USA) was added to the cells which were then stimulated for four h. Cells were stained with CD3-APC-H7, CD4-FITC, CD8-PerCP, IFN-γ-APC, TNF-α-BV421 and Fixable Viability Stain 510 (BD Biosciences, San Jose, Calif., USA), permeabilized and washed with Permeabilization Reagent/Diluent and fixation-permeabilization buffer (AH Diagnostics, Aarhus, Denmark). Cells were acquired with a FACS Canto II (BD Biosciences) and analyzed using FACSDiva software. All effector cell stimulations were run in triplicate wells if not otherwise specified.

[2] = test system: PBMC from healthy donors; assay: IFN-γ ELISPOT on PBMC from healthy donors; settings: for healthy donors with a significant response in IFN-γ ELISPOT / healthy donors with a significant response in IFN-γ ELISPOT, percentage: of 21 (CALRLong1), 23 (CALRLong2), 9 (CALRLong4), 7 (CALRLong5) analyzed
Description: (§1) The ELISPOT assay is based on the detection of antigen induced release of cytokines—most often IFN-γ—by single T-cells upon triggering of its T-cell receptor. Reactivity of a single T-cell can be detected and quantified via binding of the respective cytokine on special nitrocellulose filter plates. When a T-cell recognizes the peptide epitope examined, the T-cell releases cytokines that are detected by a colorimetric reaction using an enzyme conjugated to a secondary cytokine specific antibody. The reaction product is visible as a spot. Ideally, each spot represents the cytokines secreted by a single activated cell. ELISPOTs were performed and analyzed as described previously (Munir et al., 2013). PBMCs were tested in different concentrations to ensure an optimal response. The distribution-free resampling method, described by Moodie et al., was used for statistical analyses and a p-value ≤0.05 was deemed a T-cell response (Moodie et al., 2010).
PBMC from healthy donors were analyzed by IFN-γ ELISPOTs as described in Example 1 for immune responses against the CARL-mutant epitopes CALRLong1 ([…]), CALRLong2 ([…]), CALRLong4 ([…]) and CALRLong5 ([…]). […]

[3] = test system: PBMCs from the CALRmut donor; assay: Spontaneous ex-vivo ELISPOT, 48 hour assay; settings: high background, rules of Moodie et al.
Protocol: We established a CALRLong1-specific T-cell culture from a CALRmut patient with a strong […] T-cell response against CALRLong1 peptide. PBL were stimulated three times with autologous dendritic cells, and T-cells were analyzed using intracellular cytokine staining (ICS). […] However, CD4^+ T cells responded to CALRLong1 (FIG. 7). […] Since CALRLong4 peptide comprises the shared 36 amino acid C-terminus found in all CALRmut patients, we tested PBMCs from the donor for a spontaneous ex-vivo ELISPOT response in a 48 hour assay.

[4] = test system: PBMC from healthy donors; assay: TNF-α ELISPOT on PBMC from healthy donors; settings: ten healthy controls analyzed per peptide
Description: Of note, all patients with a TNF-α response against CALRLong1 and CALRLong2 did also display an IFN-g response in ELISPOT (FIGS. 14-15).

[5] = test system: PBMC from CALR-mutated MPN patients; assay: IFN-γ ELISPOT for spontaneous T-cell responses in PBMC from CALR-mutated MPN patients
Description: The study was approved by the local ethics committee, and all patients signed informed consent, in accordance with the Helsinki Declaration before study participation. We included 31 CALRmut MPN patients with the following diagnoses: ET (n=13), PMF (n=12), post-ET MF (n=4), or prefibrotic MF (n=2). Peripheral blood mononuclear cells (PBMC) were isolated with Lymphoprep and frozen in fetal calf serum with 10% dimethyl sulfoxide. First, we scrutinized PBMC from two MPN patients for the presence of spontaneous T-cell responses against two CALR derived peptides, CALR Long1 ([…], SEQ ID NO: 2) and CALR Long2 ([…], SEQ ID NO: 3) using the highly sensitive and solid interferon gamma (IFN-γ) Enzyme-Linked ImmunoSPOT (ELISPOT) secretion assays (FIGS. 1A and 1C). The ELISPOT has proven to be the central assay in studies focusing on identification on novel tumor antigens by the characterization of novel tumor antigen responses in PBMC from cancer patients. Thus, this assay has previously been utilized for the identification of novel tumor antigens based on spontaneous immunity in cancer patients (Andersen et al., 2005).
as §1
After the promising responses in the first two patients we analyzed PBMC from additional 29 CALR-mutated MPN patients. […] Of the 24 evaluable patients, 10 had ET and 14 had MF; the latter group comprised 11 patients with PMF, 2 with post-ET MF, and 1 with prefibrotic MF. […] Furthermore, we examined PBMC from two patients in a tumor necrosis factor alpha (TNF-α) ELISPOT.

[6] = test system: PBMC / T-cells from CALRmut MPN patients; assay: Intracellular cytokine staining of patient PBMC and of DC-stimulated T-cell culture; settings: PBMC from patient C39
Description: Next, we chose to analyze PBMC from four patients with a response against CALR Long1 and CALR Long2 peptides using intracellular cytokine staining. Although this method is less sensitive than ELISPOT, it allows elucidating which immune cells secrete the cytokine identified in ELISPOT. Hereby, we could determine whether the reacting cells were T-cells and, if so, if the responding cells were CD4 T-cells or CD8 T-cells. In short, cells were stimulated with CALR Long1 or with a scrambled peptide ([…]) as control. For surface markers we employed 4 μl NIR, 10 μl CD4 PerCP, 2 μl CD8 Pacific Blue, and 10 μl CD3 FITC and for intracellular staining we used 2 μl anti-TNF-α and anti IFN-γ antibodies conjugated with either PE-Cy7 or APC. Washing, permeabilization and staining procedures followed previously described methods (Munir, Andersen et al., 2013). […] To confirm that the responses identified indeed were T-cell responses against CALR Long1, we generated dendritic cells from patient C42 using previously described methods. Autologous PBMC were stimulated three times with the dendritic cells, which had been pulsed with CALR Long1, and we hereby generated a CALR Long1 specific T-cell culture. […] The frequent detection of T-cell responses indicate, that the CALR mutations encode highly immunogenic cancer antigens, which represent ideal targets for anti-cancer immune therapy.

Sequence	response of CD4^+ T cells of the CALRLong1 bulk culture to peptide stimulation [1]	immune responses of healthy donors in IFN-γ ELISPOT [2]	healthy donors with a significant response in IFN-γ ELISPOT [2]	healthy donors with a significant response in IFN-γ ELISPOT, percentage [2] [%]	spontaneous ex-vivo ELISPOT response [3]	healthy controls with a significant TNF-α response [4]	patients that responded in IFN-γ ELISPOT, percentage ([5]; 18 evaluable patients for CALR Long1, 24 for CALR Long2) [%]	patients that responded in IFN-γ ELISPOT ([5]; 18 evaluable patients for CALR Long1, 24 for CALR Long2, p-value ≤0.05 deemed a T-cell response) [patients]	response confirmed in additional ELISPOT ([5]; samples from 5 of the responding patients retested) [patients]	type of T-cell response, intracellular cytokine staining [6]
RRMRRTRRKMRRKMSPARPRTSCREACLQGWTEA (listed as Homo sapiens) [CALRLong4]	reacted	strong immune responses	9	100	significant response	–	–	–	–	–
TRRKMRRKMSPARPRTSCREACLQGWTEA (listed as Homo sapiens) [CALRLong2]	did not respond	strong immune responses	18	78	–	Five	42	10	4	CD4 T-cell response
